Test results: patent publication US20230137092A1, “Composition and Method for the Treatment and Prevention of Cardiac, Pulmonary, Dermal, and Renal Fibrosis” (EMERALD HEALTH PHARMACEUTICALS INC., priority 2020, published 2023)

Experiments:
[1] = system: Ang II-induced cardiac fibrosis; experiment: Ang II-induced cardiac fibrosis, preventive model: collagen by Sirius red/fast green in left ventricle; type: in vivo, mouse; settings: vs Ang II group
Method: Ang II causes myocardial fibrosis in a short period of time (Sopel M et al., 2011, Lab. Invest., 91:565-578) characterized by collagen accumulation and after 14 days of Ang II infusion (Sigusch H H et al., 1996, Cardiovascular Research, 31:546-554). […] Subcutaneous infusion of Ang II using ALZET® osmotic pumps was used to study compound preventive effects. ALZET® osmotic minipumps (Model #2004, Charles Rives, Barcelona, Spain) delivering of Ang II (1.0 mg kg^− min^−) (Sigma-Aldrich, Madrid, Spain) for two weeks. Compound treatment was daily administered in parallel, one day before of the implantation of the subcutaneous pump, beneath the mid scapular loose skin and consisted of daily oral gavage of compound (20 mg/kg) or vehicle (Corn Oil/Maisine CC, 1/1). Mice were acclimated to manipulators for a week previously to the experiments in order to reduce stress and allow the detection of subtle changes in behavior by researchers. […]
Interstitial heart fibrosis was determined by the measurement of Sirius red/fast green staining (collagen content) (FIG. 1A). […]
(§1) Mice treated with Ang II presented an increase in the thickness of aortic media layer by collagen accumulation. […] Three-four random fields of each heart were photographed by standard brightfield microscopy and digitalized using a Leica DFC420c camera and analyzed using Fiji software (rsb.info.nih.gov/ij/).

[2] = system: Ang II-induced aortic fibrosis; experiment: Ang II preventive model: aorta sections, picrosirius red; type: in vivo, mouse; settings: Ang II two weeks, oral treatment
Method: Ang II causes myocardial fibrosis in a short period of time (Sopel M et al., 2011, Lab. Invest., 91:565-578) characterized by collagen accumulation and after 14 days of Ang II infusion (Sigusch H H et al., 1996, Cardiovascular Research, 31:546-554). […] Subcutaneous infusion of Ang II using ALZET® osmotic pumps was used to study compound preventive effects. ALZET® osmotic minipumps (Model #2004, Charles Rives, Barcelona, Spain) delivering of Ang II (1.0 mg kg^− min^−) (Sigma-Aldrich, Madrid, Spain) for two weeks. Compound treatment was daily administered in parallel, one day before of the implantation of the subcutaneous pump, beneath the mid scapular loose skin and consisted of daily oral gavage of compound (20 mg/kg) or vehicle (Corn Oil/Maisine CC, 1/1). Mice were acclimated to manipulators for a week previously to the experiments in order to reduce stress and allow the detection of subtle changes in behavior by researchers. […] Neither piloerection nor hunched appearances were appreciated during the experimental procedures. […]
as §1

[3] = system: inflammatory and fibrotic marker mRNAs in heart; experiment: Real-time quantitative PCR of inflammatory and fibrotic markers in heart, Ang II preventive model; type: in vivo, mouse; settings: Ang II infused mice; 2-ΔΔCt method
[4] = system: Ang II-induced renal fibrosis; experiment: Ang II therapeutic model: renal fibrosis, Sirius red; type: in vivo, mouse; settings: Ang II four weeks, 20 mg/kg oral last two weeks, #p<0.05 versus Ang II group
Method: For the therapeutic model, infusion of Ang II for four weeks and the compound of Formula (VIII) (20 mg/kg) was administrated after two weeks of pump implantation. Subcutaneous infusion of Ang II using ALZET osmotic minipumps was used to study the preventive effects of the compound ALZET® osmotic minipumps (Model #2004, Charles Rives, Barcelona, Spain) delivering of Ang II (500 ng kg^−1 min^−1) (Sigma-Aldrich, Madrid, Spain) for four weeks. Compound treatment was daily administered in parallel, two weeks after the implantation of the subcutaneous pump, beneath the midscapular loose skin and consisted of daily oral gavage of compound of Formula (VIII) (20 mg/kg) or vehicle (Corn Oil/Maisine CC, 1/1). Mice were acclimated to manipulators for a week previously to the experiments in order to reduce stress and allow the detection of subtle changes in behavior by researchers. […] Neither piloerection nor hunched appearances were appreciated during the experimental procedures. Mice were sacrificed by cervical dislocation and the heart, aorta, kidney, and lung were removed and processed for histological examination or were frozen for further analysis.

[5] = system: ERK1+2; experiment: Ang II-induced ERK1+2 phosphorylation in hICF, immunoblot; type: cell-based, human; settings: hICF preincubated with compound, Ang II for 30 minutes
Method: The effect of compound of Formula (VIII) on Ang II signaling pathways in hICF was investigated. ERK1+2 and NFAT activation are two pathways activated by Ang-II (Wakatsuki et al., 2004, Trends Biochem Sci, 29:609-617). hICF were preincubated with compound of Formula (VIII), treated with Ang II for 30 minutes, washed with PBS and proteins extracted in 50 μL of lysis buffer (50 mM Tris-HCl pH 7.5, 150 mM NaCl, 1% (v/v) NP-40, 10% (v/v) glycerol, 10 mM NaF, 1 mM Na3VO4, aprotinin (10 μg/ml), leupeptine (10 μg/ml), pepstatin (1 μg/ml) and 1 mM PMSF saturated). Separated proteins in 10% SDS/PAGE gels were transferred to PVDF membranes and blocked in TBS solution containing 0.1% Tween 20 and 5% bovine serum albumin (BSA) for 1 hour at room temperature. Immunodetection of specific proteins was carried out by incubation with primary antibodies against p-ERK (1:1000; #4695 Cell Signaling Technology) and ERK (1:1000, M5670, Sigma). Membranes were incubated with horseradish peroxidase-conjugated secondary antibody was added and proteins detected by chemiluminescence system (GE Healthcare Europe GmbH). Compound of Formula (VIII) inhibited Ang II-induced ERK1+2 phosphorylation (FIG. 16B).

[6] = system: NFAT; experiment: Gal4-NFAT / Gal4-Luc reporter assay in hICF; type: cell-based, human; settings: hICF transfected with Gal4-Luc and Gal4-NFAT, stimulated 6 hours
Method: hICF cells were transiently transfected for 24 hours with the Gal4-Luc reporter plasmid (which includes five Gal4 DNA binding sites fused to the luciferase gene) and the Gal4-NFAT1-415plasmid for 24 hours using Roti-Fect (Carl Roth GmbH & Co. KG, Karlsruhe, Germany). Then cells were stimulated for 6 hours and luciferase activity in the cell lysates was measured. The specific transactivation expressed as a percentage of activation relative to control. Compound of Formula (VIII) inhibited Ang II-induced NFAT activation (FIG. 16B).

[7] = Weight and behaviour observation during the preventive Ang II protocol; type: in vivo, mouse; settings: 20 mg/kg daily oral gavage
Method: Ang II causes myocardial fibrosis in a short period of time (Sopel M et al., 2011, Lab. Invest., 91:565-578) characterized by collagen accumulation and after 14 days of Ang II infusion (Sigusch H H et al., 1996, Cardiovascular Research, 31:546-554). […] Subcutaneous infusion of Ang II using ALZET® osmotic pumps was used to study compound preventive effects. ALZET® osmotic minipumps (Model #2004, Charles Rives, Barcelona, Spain) delivering of Ang II (1.0 mg kg^− min^−) (Sigma-Aldrich, Madrid, Spain) for two weeks. Compound treatment was daily administered in parallel, one day before of the implantation of the subcutaneous pump, beneath the mid scapular loose skin and consisted of daily oral gavage of compound (20 mg/kg) or vehicle (Corn Oil/Maisine CC, 1/1). Mice were acclimated to manipulators for a week previously to the experiments in order to reduce stress and allow the detection of subtle changes in behavior by researchers. […] Neither piloerection nor hunched appearances were appreciated during the experimental procedures. Mice were sacrificed by cervical dislocation and the heart, aorta, skin, and kidney were removed and processed for histological examination or were frozen for further analysis.

C=C(C)C1CCC(C)=C[C@H]1C1=C(O)C(=O)C(CCCCC)=C(NCc2ccccc2)C1=O (some centres unmarked) [Formula (VIII)]
collagen content accumulation on interstitial area of left ventricle ([1]; Ang II 1.0 mg kg^- min^- two weeks, 20 mg/kg daily oral gavage): significantly (p<0.001) reduced
perivascular collagen content (perivascular myocardial area) ([1]; Ang II two weeks, 20 mg/kg oral): significant reduction
thickness of aortic media layer by collagen accumulation [2]: significantly alleviated
IL1β expression level in left ventricle [3]: significantly reduced
IL6 expression level in left ventricle [3]: significantly reduced
TNC expression level in left ventricle [3]: significantly reduced
renal fibrosis (collagen accumulation in kidney) [4]: reduced
Ang II-induced ERK1+2 phosphorylation [5]: inhibited
Ang II-induced NFAT activation (luciferase) [6]: inhibited
behavioral changes [7]: No behavioral changes
mice weight ([7]; between experimental groups): no significant changes
